{"source": "patent US6518221B1", "about": "“Plant growth regulator and method for using same” (Wilbur-Ellis Company, priority 2002, dated 2003)", "assay_type_in_all_cases": "in vivo", "key": {"MAXXA cotton": {"system": "MAXXA cotton", "assay": "Study on MAXXA cotton: effects on plant growth and development", "conditions": "10 gm/A", "protocol": "A study was conducted on MAXXA cotton to determine the effects of Mepiquat Chloride and the combination of (CCC) chlormequat chloride/WSCP on plant growth and development.\nIn this example, the amount of WSCP used in each chemical treatment was constant, and the amount of CCC varied from 2.5 to 5.0 grams/acre. The corresponding ratios of WSCP and CCC were as follows: at the 2.5 gram/acre rate the ratio of WSCP to CCC was 30:1; at the 5.0 gram/acre rate the ratio of WSCP to CCC was 15:1. It should also be noted that 5.0% calcium and 1.25% zinc were also added to each of the mixtures."}, "[1]": {"system": "Stoneville cotton variety", "assay": "Field study in Mississippi on Stoneville cotton: fruit (boll) set", "conditions": "10 grams per acre, applied once on July 8th, with 5.0% calcium and 1.25% zinc", "protocol": "A field study was conducted in the State of Mississippi on a Stoneville cotton variety, in which the physiological characteristics of plants treated with the plant growth regulator of the present invention (a mixture of CCC, WSCP, and CC), were compared to the characteristics of untreated plants, or “checks”, and the characteristics of plants treated with PIX.\nThe formulation of the present invention used in Example 2 was as follows: the ratio of WSCP to CCC was reduced to 2.7:1, and the ratio of CC (Choline Chloride) to CCC was 0.6:1. Also added to the formulation was 5.0% calcium and 1.25% zinc.\nThe rate of PIX application was 10 grams per acre, applied once on July 8th of the study year. The rate and timing of this application was consistent with the manufacturer's label recommendation. The rate of application of the plant growth regulator of the present invention was 2.5 grams per acre, applied once on June 28th and again on July 18th. As with Example 1, the formulations of PIX used in Example 2, included 5.0% calcium and 1.25% zinc.\nThe physiological characteristics under study determine the effectiveness of the chemical products on fruit, or boll, set. The first fruiting position on a reproductive branch is the most important plant feature that affects expected plant yield. Consequently, the higher the percentage of fruit set at the first fruiting position the higher the fruit yield potential."}, "cotton": {"system": "cotton", "assay": "Field trials in Greece: plant growth regulating effects (plant height)", "conditions": "20.0 gm/Ha", "source_text": "Field trials were established in the country of Greece to determine the plant growth regulating effects of several products, including the chemical formulation of the present invention. The particular formulation of the present invention used in these trials, was as follows: 1.0 parts CCC; 2.7 parts WSCP; 0.6 parts CC; 27 parts Calcium; and, 6.75 parts Zinc (parts per weight). All of the chemical applications were applied at the same time, and there were three replications at each trial site."}}, "data": [{"compound": "C[N+]1(C)CCCCC1.[Cl-]", "note": "[Mepiquat Chloride, N,N-dimethylpiperidinium chloride]", "values": [{"measurement": "Average Bottom 5 FPB (First Position Bolls As A Percentage)", "setting": "MAXXA cotton", "result": 60.0, "unit": "Percentage"}, {"measurement": "Average Fruiting Branches", "setting": "MAXXA cotton", "result": 15.7}, {"measurement": "Average Nodes", "setting": "MAXXA cotton", "result": 21.7}, {"measurement": "Average Plant Height", "setting": "MAXXA cotton", "result": "35.9″"}, {"measurement": "Average Top 5 FPB (First Position Bolls As A Percentage)", "setting": "MAXXA cotton", "result": 43.0, "unit": "Percentage"}, {"measurement": "Average Vegetative Nodes", "setting": "MAXXA cotton", "result": 6.1}, {"measurement": "First Fruiting Branch", "setting": "[1]", "result": 6}, {"measurement": "Percentage Of First Fruiting Positions (Nodes 6-13)", "setting": "[1]", "result": 76.3, "unit": "%"}, {"measurement": "Total Percentage Of Fruit Set (Nodes 6-13)", "setting": "[1]", "result": 65.0, "unit": "%"}, {"measurement": "Plant Height", "setting": "cotton; Site 1", "result": 10.00, "unit": "Cm"}, {"measurement": "Plant Height", "setting": "cotton; Site 2", "result": 27.33, "unit": "Cm"}, {"measurement": "Plant Height", "setting": "cotton; Site 3", "result": 7.78, "unit": "Cm"}]}]}
